The text below walks through data of patent publication US6916843B1, “Anti-inflammatory actions of cytochrome P450 expoxygenase-derived eicosanoids” (The United States of America as represented by the …, priority 1999, dated 2005).

The target in one data set is T1, CYP2J2 (Homo sapiens, UniProt P51589).
T1 construct: The CYP2J2 cDNA (1.9 kb) or GFP cDNA (0.75 kb) were subcloned into the plasmid pcDNA3.1; expressed in transfected cells; host or cells: bovine aortic endothelial cells (BAECs), transient transfection with pcDNA3.1/CYP2J2
T1 sequence (P51589 1-502): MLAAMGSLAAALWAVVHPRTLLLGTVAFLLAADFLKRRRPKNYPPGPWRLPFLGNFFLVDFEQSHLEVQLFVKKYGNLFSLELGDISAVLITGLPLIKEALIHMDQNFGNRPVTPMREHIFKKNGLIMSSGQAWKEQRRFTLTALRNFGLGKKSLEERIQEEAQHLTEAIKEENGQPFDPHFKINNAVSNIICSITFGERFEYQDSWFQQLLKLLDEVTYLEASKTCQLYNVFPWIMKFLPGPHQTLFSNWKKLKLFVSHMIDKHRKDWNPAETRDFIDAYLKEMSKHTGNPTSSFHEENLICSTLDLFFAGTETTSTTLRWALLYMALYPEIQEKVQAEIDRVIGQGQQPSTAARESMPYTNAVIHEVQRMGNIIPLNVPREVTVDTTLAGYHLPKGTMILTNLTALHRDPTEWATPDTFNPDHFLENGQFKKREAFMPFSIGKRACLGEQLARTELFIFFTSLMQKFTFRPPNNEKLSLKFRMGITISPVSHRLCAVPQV
As to the kind of experiment: Arachidonic acid epoxygenase metabolite formation in CYP2J2-transfected bovine aortic endothelial cells (HPLC). How it is done: To study the formation of EETs by CYP2J2 in endothelial cells, we measured EET synthesis from bovine endothelial cells transfected with CYP2J2 cDNA. Early passage bovine aortic endothelial cells were grown to 60-70% confluence and transfected with either pcDNA3.1 or pcDNA3.1/CYP2J2 using Fugene™ 6 reagent (Boehringer Mannheim Corp.) according to the manufacturer's instructions. Using this method, the transfection efficiency was 10-20%. Forty-eight hours post-transfection, cells were washed twice with phosphate-buffered saline and incubated with freshly purified [^3H]arachidonic acid (185 Ci/mmol, 4-5 μCi/175 mm^2 flask) and unlabeled arachidonic acid (10 μM) was added before addition of arachidonic acid. At various time points, the media and cells were removed and extracted with diethyl ether. The combined organic phases were dried under a nitrogen stream, resolved by reverse-phase high performance liquid chromatography (HPLC) and quantified by liquid scintillation as described by Wu et al., 271 J. Biol. Chem. 3460 (1996). […]
These control GFP-transfected cells metabolized radiolabeled arachidonic acid to epoxygenase metabolites (EETs and DHETs) at a rate of ˜8 pmol/min/10^7 cells (FIG. 6). Endothelial cell arachidonic acid metabolism was determined as follows: Forty-eight hours after transfection with either pcDNA3.1/GFP or pcDNA3.1/CYP2J2, BAECs were incubated with freshly purified [5, 6, 8, 9, 11, 12, 14, 15-^3H]arachidonic acid (185 Ci/mmol, 4-5 μCi/175-mm^2 flask) in serurm-free culture medium at 37° C. for 30-120 min. […] The BAECs and culture medium were then collected and the reaction products extracted into ethyl ether, dried under a nitrogen stream, analyzed by reverse-phase HPLC, and quantified by on-line liquid scintillation using a Radiomatic Flo-One β detector (Radiomatic Instruments, Tampa, Fla.) as described (Wu et al., 271 J. Biol. Chem. 12551 (1996), Node et al., 285 Science 1276-1279 (1999)). […]

For another data set, the system named is VCAM-1 promoter. As to the kind of experiment: VCAM-1 promoter construct activity in transiently transfected bovine aortic endothelial cells. The format is cell-based. To be noted: 100 μM. The source says:
To localize cis-acting elements in the VCAM-1 promoter that might mediate the inhibitory effects of [11,12]-EET, we transiently transfected bovine aortic endothelial cells with a -755 bp VCAM-1 promoter construct (DeCaterina et al., 96 J. Clin. Invest. 60 (1995)). Stimulation with TNF-α induced a 13-fold increase in relative VCAM-1 promoter activity that was abolished by cotreatment with [11,12]-EET. […] To confirm that the tandem κB sites in the VCAM-1 promoter are repressed by [11,12]-EET we subcloned them into a heterologous promoter construct containing the SV40 enhancer linked to the luciferase reporter gene (pκB.Luc). Stimulation of transfected endothelial cells with TNF-α induced a 6-fold increase in pκB.Luc promoter activity that was abolished by co-treatment with [11,12]-EET, but not [14,15]-EET (FIG. 2C). […] Compared to transfection with the empty pcDNA3.1 vector, overexpression of CYP2J2 decreased TNF-induced VCAM-1 and pκB.Luc promoter activity by 70-80% which were reversed in the presence of SK[…] (FIG. 2C). Neither transfection with CYP2J2 cDNA alone nor treatment with SK[…] alone affected basal promoter activity.

Another data set deals with NF-κB. The data set is described as follows: NF-κB heterologous promoter (pκB.Luc) luciferase reporter in bovine endothelial cells. The format is cell-based. The note with it: 100 μM. Here is the method: FIG. 2 is a set of bar graphs of cell-surface enzyme immunoassays. […] The difference between treatment with TNF-α alone and in the presence of [11,12]-EET were statistically significant (*p<0.05, **p<0.01), OD, optical density. […] After stimulation with TNF-α (10 ng/ml) in the presence or absence of EET, promoter activity was determined relative to basal activity. *p<0.01 vs. TNF-α alone.
To localize cis-acting elements in the VCAM-1 promoter that might mediate the inhibitory effects of [11,12]-EET, we transiently transfected bovine aortic endothelial cells with a −755 bp VCAM-1 promoter construct (DeCaterina et al., 96 J. Clin. Invest. 60 (1995)). Stimulation with TNF-α induced a 13-fold increase in relative VCAM-1 promoter activity that was abolished by cotreatment with [11,12]-EET. […] To confirm that the tandem κB sites in the VCAM-1 promoter are repressed by [11,12]-EET we subcloned them into a heterologous promoter construct containing the SV40 enhancer linked to the luciferase reporter gene (pκB.Luc). Stimulation of transfected endothelial cells with TNF-α induced a 6-fold increase in pκB.Luc promoter activity that was abolished by co-treatment with [11,12]-EET, but not [14,15]-EET (FIG. 2C). […] Compared to transfection with the empty pcDNA3.1 vector, overexpression of CYP2J2 decreased TNF-induced VCAM-1 and pκB.Luc promoter activity by 70-80% which were reversed in the presence of SKF525A (FIG. 2C). Neither transfection with CYP2J2 cDNA alone nor treatment with SKF525A alone affected basal promoter activity.
On the technique in general: A reporter such as luciferase makes a cellular process visible.

In the next data set the test system is IκB kinase (IKK). As to the kind of experiment: IKK activity assay with GST-IκB-α substrate, TNF-α-stimulated endothelial cells. Type of data set: biochemical, human. To be noted: 100 nM, TNF-α 10 ng/ml, 15 min. Here is the method:
A set of gel shift assays was performed. […] In some assays, [11,12]-EET (100 nM) was also added directly to the IKK assay (in vitro). As a control for nonspecific phosphorylation, the assay was performed without the addition of immunoprecipitated IKK (no enzyme) or in the presence of a IκB-α mutant (ΔSer 32, Ser 36→Thr) as substrate. The assay was performed three times with similar results.
Specificity of IKB was determined by the complete absence of phosphorylation when the mutated IκB-α substrate, GST-1κB-α (Δ32,36: S→T) which cannot be phosphorylated at serine residues 32 and 36, was substituted for wild-type GST-IκB-α.

Structures are written as SMILES.

Consider `CCCC(C(=O)OCCN(CC)CC)(c1ccccc1)c1ccccc1` [SKF525A, reference compound], for which the “inhibition of increased epoxygenase activity of CYP2J2-transfected BAECs” value at CYP2J2 (100 μmol/L) is given as “inhibited”. In addition, the “inhibition of formation of epoxygenase metabolites by CYP2J2 transfected cells” value at CYP2J2 (inhibitor 100 μM) is given as more than 80%. The “reversal of CYP2J2-mediated decrease of VCAM-1 promoter activity” value in the data set with VCAM-1 promoter is on record as “reversed”. Further, in the data set with NF-κB, the “reversal of CYP2J2-mediated decrease of pκB.Luc promoter activity” value is listed as “reversed”.

For `CCCCC/C=C\C/C=C\C/C=C\CC1OC1CCCC(=O)O` (stereo not drawn) [[5,6]-EET], the “inhibition of TNF-α-induced IKK activity” value with IκB kinase (IKK) is recorded as “to a lesser extent”.

With `CCCCC/C=C\C/C=C\CC1OC1C/C=C\CCCC(=O)O` (stereo not drawn) [[8,9]-EET], in the data set with IκB kinase (IKK), the “inhibition of TNF-α-induced IKK activity” value is listed as “to a lesser extent”.
